Literature values, collected in publication PMC10879402, “Comparative Study of Dermal Pharmacokinetics Between Topical Drugs Using Open Flow Microperfusion in a Pig Model” (Pharmaceutical Research, 2023).

What was measured:
[1] = set-up: method as in ref 64 (a number printed in a supplementary file, which may have a reference list of its own: not looked up in the article's list); settings: topical brepocitinib 0.1%, 0.3%, 1% and 3%
[2] = set-up: method as in ref 52 (PF-06263276), ref 51 (PF-06763809); settings: formulation used in this study (PF-06263276 4% solution, PF-06763809 2.3%); ref 52 (PF-06263276), ref 51 (PF-06763809)
[3] = set-up: method as in PMID 32949620; settings: topical application of a […] cream formulation

Cn1cc(Nc2nccc(N3C[C@H]4CC[C@@H](C3)N4C(=O)[C@@H]3CC3(F)F)n2)cn1 [brepocitinib]
outcome in psoriasis clinical study [1]: did not meet the primary and secondary endpoints

CCc1cc(O)c(F)cc1-c1ccc2c(-c3nc4c([nH]3)CCN(C(=O)c3cnc(N5CCCCC5)cn3)C4)n[nH]c2c1 [PF-06263276]
efficacy in human psoriasis plaque test [2]: no efficacy

N#CC[C@H](C1CCCC1)n1cc(-c2ncnc3[nH]ccc23)cn1 [ruxolitinib]
dermal ruxolitinib concentration (total) [3]: 63 µM | dermal ruxolitinib concentration (unbound) [3]: 12 µM
